Patent US9993457B2, “Method of improving visual processing, visual acuity, or both by administering compositions comprising RRR-alpha-tocopherol and carotenoid to infants” (ABBOTT LABORATORIES, priority 2014, dated 2018)
Where two headings read alike, the source gives them in different places.

Columns and labels:
[1] = in vivo
Text: In Example 1, the brain tissues of infants were sampled to measure the concentration of total alpha-tocopherol and RRR-alpha-tocopherol.
Subjects were infants (n=25) who died during the first year of life from either SIDS or other conditions. Brain tissues (occipital cortex, OC {n=17}; frontal cortex, FC {n−17}; and hippocampus, HPC {n=19}) from the NICHD Brain and Tissue Bank were processed using standard lipid extraction procedures and analyzed using chiral reverse phase HPLC. Data are presented as concentrations (μg/g tissue) of total alpha-tocopherol or RRR-alpha-tocopherol in the brain tissue.
The mean concentration in each region is denoted by a horizontal bar. […] In addition, total alpha-tocopherol was analyzed by age (in days) in the frontal cortex (graph B), hippocampus (graph C), and occipital cortex (graph D). […] RRR-alpha-tocopherol concentrations were also measured in the frontal cortex (graph E), hippocampus (graph F), and occipital cortex (graph G) of human infant brain tissues and reported as a function of age.

[2] = cited from earlier work

SMILES | correlation between age and mean concentration [1] | stereoisomer predominance compared to all non-RRR-alpha-tocopherol stereoisomers [1] | biological activity relative to all-rac-alpha-tocopherol ([2]; accepted nutritional guidelines) [times] | biological activity relative to all-rac-alpha-tocopherol ([2]; recent studies) | change of total alpha-tocopherol concentration with age [1]
Cc1c(C)c2c(c(C)c1O)CC[C@@](C)(CCC[C@H](C)CCC[C@H](C)CCCC(C)C)O2 [RRR-alpha-tocopherol] | strong correlation | predominant stereoisomer | 1.36 | about 2 times | –
Cc1c(C)c2c(c(C)c1O)CC[C@@](C)(CCC[C@H](C)CCC[C@H](C)CCCC(C)C)O2 [alpha-tocopherol] | – | – | – | – | increased with age
